# Measurements reported in patent US20230157952A1, “METHOD FOR IMPROVING THE STABILITY OF A PHARMACEUTICAL COMPOSITION COMPRISING A HIGH PENETRATION DRUG, AND THE PHARMACEUTICAL COMPOSITION OBTAINED THEREFROM” (Techfields Inc., priority 2020, published 2023).
# What was measured:
# [1] = Effect of concentration on the stability of the solution (purity over time); conditions: in water at 25° C.
# [2] = Effect of temperature (and pH) on the stability of the solution (purity); assay type: physicochemical; conditions: 7% solution in water
smiles,measurement,setting,value
CCN(CC)CCOC(=O)Cc1c(C)n(C(=O)c2ccc(Cl)cc2)c2ccc(OC)cc12.Cl [2-(diethylamino)ethyl 1-(4-chlorobenzoyl)-5-methoxy-2-methyl-1H-indole-3-acetate•HCl],Purity at Day 3,[1]; 0.01 wt %,84.2%
same,Purity at Day 7,[1]; 0.01 wt %,72.9%
same,Purity at Day 14,[1]; 0.01 wt %,61.3%
same,Purity at Day 21,[1]; 0.01 wt %,53.4%
same,Purity at Day 28,[1]; 0.01 wt %,45.5%
same,Purity at hr 0,[1]; 0.01 wt %,98.0%
same,Purity at Day 3,[1]; 0.1 wt %,96.3%
same,Purity at Day 7,[1]; 0.1 wt %,93.6%
same,Purity at Day 14,[1]; 0.1 wt %,88.9%
same,Purity at Day 21,[1]; 0.1 wt %,84.7%
same,Purity at Day 28,[1]; 0.1 wt %,78.7%
same,Purity at hr 0,[1]; 0.1 wt %,98.2%
same,Purity at Day 3,[1]; 1 wt %,97.2%
same,Purity at Day 7,[1]; 1 wt %,96.1%
same,Purity at Day 14,[1]; 1 wt %,94.0%
same,Purity at Day 21,[1]; 1 wt %,92.4%
same,Purity at Day 28,[1]; 1 wt %,91.2%
same,Purity at hr 0,[1]; 1 wt %,98.3%
same,Purity at Day 3,[1]; 3 wt %,97.8%
same,Purity at Day 7,[1]; 3 wt %,97.2%
same,Purity at Day 14,[1]; 3 wt %,96.0%
same,Purity at Day 21,[1]; 3 wt %,95.0%
same,Purity at Day 28,[1]; 3 wt %,94.1%
same,Purity at hr 0,[1]; 3 wt %,98.4%
same,Purity at Day 3,[1]; 5 wt %,98.3%
same,Purity at Day 7,[1]; 5 wt %,98.0%
same,Purity at Day 14,[1]; 5 wt %,97.7%
same,Purity at Day 21,[1]; 5 wt %,97.1%
same,Purity at Day 28,[1]; 5 wt %,96.5%
same,Purity at hr 0,[1]; 5 wt %,98.5%
same,Purity at Day 3,[1]; 7 wt %,98.4%
same,Purity at Day 7,[1]; 7 wt %,98.2%
same,Purity at Day 14,[1]; 7 wt %,98.0%
same,Purity at Day 21,[1]; 7 wt %,97.7%
same,Purity at Day 28,[1]; 7 wt %,97.4%
same,Purity at hr 0,[1]; 7 wt %,98.5%
same,Purity at Day 3,[1]; 8 wt %,98.4%
same,Purity at Day 7,[1]; 8 wt %,98.3%
same,Purity at Day 14,[1]; 8 wt %,98.0%
same,Purity at Day 21,[1]; 8 wt %,97.8%
same,Purity at Day 28,[1]; 8 wt %,97.4%
same,Purity at hr 0,[1]; 8 wt %,98.6%
same,Purity at Day 3,[1]; 10 wt %,98.4%
same,Purity at Day 7,[1]; 10 wt %,98.3%
same,Purity at Day 14,[1]; 10 wt %,98.2%
same,Purity at Day 21,[1]; 10 wt %,98.0%
same,Purity at Day 28,[1]; 10 wt %,97.6%
same,Purity at hr 0,[1]; 10 wt %,98.5%
same,Purity at Day 3,[1]; 15 wt %,98.4%
same,Purity at Day 7,[1]; 15 wt %,98.2%
same,Purity at Day 14,[1]; 15 wt %,98.1%
same,Purity at Day 21,[1]; 15 wt %,98.0%
same,Purity at Day 28,[1]; 15 wt %,97.5%
same,Purity at hr 0,[1]; 15 wt %,98.5%
same,Purity at Day 3,[1]; 20 wt %,98.4%
same,Purity at Day 7,[1]; 20 wt %,98.5%
same,Purity at Day 14,[1]; 20 wt %,98.2%
same,Purity at Day 21,[1]; 20 wt %,98.1%
same,Purity at Day 28,[1]; 20 wt %,97.7%
same,Purity at hr 0,[1]; 20 wt %,98.6%
same,Purity at Day 3,[1]; 30 wt %,98.5%
same,Purity at Day 7,[1]; 30 wt %,98.3%
same,Purity at Day 14,[1]; 30 wt %,98.0%
same,Purity at Day 21,[1]; 30 wt %,98.1%
same,Purity at Day 28,[1]; 30 wt %,97.5%
same,Purity at hr 0,[1]; 30 wt %,98.5%
same,Purity at Day 3,[1]; 50 wt %,98.5%
same,Purity at Day 7,[1]; 50 wt %,98.4%
same,Purity at Day 14,[1]; 50 wt %,98.1%
same,Purity at Day 21,[1]; 50 wt %,97.9%
same,Purity at Day 28,[1]; 50 wt %,97.6%
same,Purity at hr 0,[1]; 50 wt %,98.6%
same,Stability when the concentration is 0.1% or lower,[1],not stable
same,Stability of the solution at a temperature higher than 40° C. and a pH lower than 3 or greater than 6,[2],not stable
